Source: US20100086483A1, “METHOD OF MULTIDETECTOR COMPUTED TOMAGRAPHY” (Gilead Palo Alto, Inc., priority 2008, published 2010)

Tests used:
[1] = test system: conscious dogs; assay: Effects of caffeine on regadenoson-induced coronary vasodilation and changes in hemodynamics in conscious dogs (Part II); type: in vivo, dog; details: for duration of 2-fold increase in CBF / maximum CBF: time control group, 4 dogs
Procedure: Sixteen chronically instrumented male mongrel dogs weighing from 22-30 kg were used in the study. The animal protocol was approved by the Institutional Animal Care and Use Committee of New York Medical College and conforms to the Guide for the Care and Use of Laboratory Animal by the United States National Institutes of Health.
Dogs were sedated with acepromazine (0.3 mg/kg, IM) and anesthetized with pentobarbital sodium (25 mg/kg, IV). After intubation, dogs were artificially ventilated with room air. A thoracotomy was made in the fifth intercostal space using sterile techniques. A Tygon catheter (Cardiovascular Instruments, Wakefield, Mass.) was inserted into the descending thoracic aorta and another one was inserted into the left atrium. In 9 dogs, an ultrasound flow transducer (Transonic Systems, Ithaca, N.Y.) was placed around the left circumflex coronary artery. A solid-state pressure gauge (P6.5, Konisberg Instruments, Pasadena, Calif.) was placed into the left ventricle through the apex. The chest was closed in layers. The catheters and wires were tunneled subcutaneously and externalized through the skin at the back of the dog's neck. Dogs were allowed to recover from the surgery before experiments were performed, and were trained to lie on a table.
Phasic arterial pressure was measured by connecting the aortic catheter to a strain gauge transducer (P23 ID, LDS Test and Measurement, Valley View, Ohio). Left ventricular pressures were measured by the solid pressure gauge. CBF (mL/min) was measured from an ultrasound flow transducer using a Transonic flowmeter (T206, Transonic Systems, Ithaca, N.Y.). Two indices were used to describe the regadenoson-induced coronary vasodilation: 1) the maximum increase in CBF and 2) the duration of the 2-fold increase in CBF (the period of time that CBF was elevated to a level ≧2-fold of baseline CBF). All pressure and flow data were acquired and analyzed using a Ponemah System (Version 3.30 or 4.20, LDS Test and Measurement, Valley View, Ohio). MAP and HR were calculated from phasic blood pressure, and LV dP/dtMax was calculated from the left ventricular systolic pressure.
On the day of an experiment, a dog was placed on a table, where it lay quietly during the experiment. A catheter was inserted into a peripheral vein in the leg and attached to an infusion line to administer drugs without disturbing the dog. The experiment was begun after MAP, HR and CBF were stable.
Each dog received an IV injection of 5 μg/kg of regadenoson. […] LVSP, LV dP/dtMax, MAP, HR and CBF were recorded continuously. Blood samples were taken from the left atrial catheter at 1, 3, 5, 15, 30, 45 and 60 min following injections of regadenoson.
In 4 dogs, two doses of regadenoson (5 μg/kg, IV) were given 90 min apart (without blood sampling) to determine if there is tachyphylaxis of regadenoson-induced coronary vasodilation.
The statistical significance of a difference between the value of a parameter at baseline and at the indicated time point after drug administration was determined using a One-Way Repeated Measures ANOVA followed by Tukey's Test. […] Results with p<0.05 were considered to be significant. […] All data are presented as Mean±SEM.

[2] = test system: normal subjects; assay: PET myocardial blood flow / coronary flow reserve after regadenoson with and without caffeine, crossover study; type: in vivo, human; details: regadenoson 400 μg IV after placebo capsule
Procedure: 15O water was used as the radionuclide in the PET scans. There was a 1- to 14-day washout period between dosing days. Blood samples and measures of safety were collected until 120 minutes after study drug administration.
The CVT tracking number for the placebo capsules was 1341 (Leg 2).
The primary efficacy measure was the log coronary flow reserve (CFR), which is the ratio of stress MBF after regadenoson dosing to the resting MBF.
The data were also to be analyzed using Wilcoxon's rank-sum test.

[3] = regadenoson 5 μg/kg IV in the presence of caffeine 1 mg/kg
[4] = regadenoson 5 μg/kg IV in the presence of caffeine 2 mg/kg
[5] = regadenoson 5 μg/kg IV in the presence of caffeine 4 mg/kg
[6] = regadenoson 5 μg/kg IV in the presence of caffeine 10 mg/kg
[7] = regadenoson 5 μg/kg IV without caffeine (control of caffeine 1 mg/kg group), 0.5 min
[8] = regadenoson 5 μg/kg IV without caffeine (control of caffeine 1 mg/kg group), 1 min
[9] = regadenoson 5 μg/kg IV without caffeine (control of caffeine 1 mg/kg group), 2 min
[10] = regadenoson 5 μg/kg IV without caffeine (control of caffeine 1 mg/kg group), 3 min
[11] = regadenoson 5 μg/kg IV without caffeine (control of caffeine 1 mg/kg group), 4 min
[12] = regadenoson 5 μg/kg IV without caffeine (control of caffeine 1 mg/kg group), 5 min
[13] = regadenoson 5 μg/kg IV without caffeine (control of caffeine 1 mg/kg group), 10 min
[14] = regadenoson 5 μg/kg IV without caffeine (control of caffeine 1 mg/kg group), 15 min
[15] = regadenoson 5 μg/kg IV without caffeine (control of caffeine 1 mg/kg group), 20 min
[16] = regadenoson 5 μg/kg IV without caffeine (control of caffeine 2 mg/kg group), 0.5 min
[17] = regadenoson 5 μg/kg IV without caffeine (control of caffeine 2 mg/kg group), 1 min
[18] = regadenoson 5 μg/kg IV without caffeine (control of caffeine 2 mg/kg group), 2 min
[19] = regadenoson 5 μg/kg IV without caffeine (control of caffeine 2 mg/kg group), 3 min
[20] = regadenoson 5 μg/kg IV without caffeine (control of caffeine 2 mg/kg group), 4 min
[21] = regadenoson 5 μg/kg IV without caffeine (control of caffeine 2 mg/kg group), 5 min
[22] = regadenoson 5 μg/kg IV without caffeine (control of caffeine 2 mg/kg group), 10 min
[23] = regadenoson 5 μg/kg IV without caffeine (control of caffeine 2 mg/kg group), 15 min
[24] = regadenoson 5 μg/kg IV without caffeine (control of caffeine 2 mg/kg group), 20 min
[25] = regadenoson 5 μg/kg IV without caffeine (control of caffeine 4 mg/kg group), 0.5 min
[26] = regadenoson 5 μg/kg IV without caffeine (control of caffeine 4 mg/kg group), 1 min
[27] = regadenoson 5 μg/kg IV without caffeine (control of caffeine 4 mg/kg group), 2 min
[28] = regadenoson 5 μg/kg IV without caffeine (control of caffeine 4 mg/kg group), 3 min
[29] = regadenoson 5 μg/kg IV without caffeine (control of caffeine 4 mg/kg group), 4 min
[30] = regadenoson 5 μg/kg IV without caffeine (control of caffeine 4 mg/kg group), 5 min
[31] = regadenoson 5 μg/kg IV without caffeine (control of caffeine 4 mg/kg group), 10 min
[32] = regadenoson 5 μg/kg IV without caffeine (control of caffeine 4 mg/kg group), 15 min
[33] = regadenoson 5 μg/kg IV without caffeine (control of caffeine 4 mg/kg group), 20 min
[34] = regadenoson 5 μg/kg IV without caffeine (control of caffeine 10 mg/kg group), 0.5 min
[35] = regadenoson 5 μg/kg IV without caffeine (control of caffeine 10 mg/kg group), 1 min
[36] = regadenoson 5 μg/kg IV without caffeine (control of caffeine 10 mg/kg group), 2 min
[37] = regadenoson 5 μg/kg IV without caffeine (control of caffeine 10 mg/kg group), 3 min
[38] = regadenoson 5 μg/kg IV without caffeine (control of caffeine 10 mg/kg group), 4 min
[39] = regadenoson 5 μg/kg IV without caffeine (control of caffeine 10 mg/kg group), 5 min
[40] = regadenoson 5 μg/kg IV without caffeine (control of caffeine 10 mg/kg group), 10 min
[41] = regadenoson 5 μg/kg IV without caffeine (control of caffeine 10 mg/kg group), 15 min
[42] = regadenoson 5 μg/kg IV without caffeine (control of caffeine 10 mg/kg group), 20 min
[43] = regadenoson 5 μg/kg IV, absence of caffeine, n=8
[44] = regadenoson 5 μg/kg IV, absence of caffeine, n=9
[45] = first injection of regadenoson 5 μg/kg IV
[46] = second injection of regadenoson 5 μg/kg IV 90 min later

CNC(=O)c1cnn(-c2nc(N)c3ncn([C@@H]4O[C@H](CO)[C@@H](O)[C@H]4O)c3n2)c1 [Regadenoson, (1-{9-[(4S,2R,3R,5R)-3,4-dihydroxy-5-(hydroxymethyl)oxolan-2-yl]-6-aminopurin-2-yl}pyrazol-4-yl)-N-methylcarboxamide]
time regadenoson-increased CBF remained at ≧2-fold baseline levels ([1]; in the presence of 1, 2 and 4 mg/kg caffeine): ≥ 3 min
decrease in LVSP from baseline [1, 3]: 9±3%
peak decrease in MAP from baseline [1, 3]: 13±2%
decrease in LVSP from baseline [1, 4]: 6±2%
peak decrease in MAP from baseline [1, 4]: 13±1%
decrease in LVSP from control (p>0.05) [1, 5]: 1±5%
peak decrease in MAP from baseline [1, 5]: 2±5%
increase in LVSP from control [1, 6]: 11±7%
increase in MAP from baseline (insignificant) [1, 6]: 9±6%
peak increase in HR from baseline ([1]; regadenoson 5 μg/kg IV with caffeine 1 mg/kg): 124±12%
peak increase in HR from baseline ([1]; regadenoson 5 μg/kg IV with caffeine 2 mg/kg): 109±21%
peak increase in HR from baseline ([1]; regadenoson 5 μg/kg IV with caffeine 4 mg/kg): 79±20%
peak increase in HR from baseline ([1]; regadenoson 5 μg/kg IV with caffeine 10 mg/kg): 74±16%
HR [1, 7]: 138 ± 10 bpm
MAP [1, 7]: 97 ± 2 mm Hg
HR [1, 8]: 144 ± 13 bpm
MAP [1, 8]: 93 ± 3 mm Hg
HR [1, 9]: 142 ± 9 bpm
MAP [1, 9]: 92 ± 4 mm Hg
HR [1, 10]: 131 ± 9 bpm
MAP [1, 10]: 92 ± 3 mm Hg
HR [1, 11]: 125 ± 8 bpm
MAP [1, 11]: 94 ± 3 mm Hg
HR [1, 12]: 121 ± 8 bpm
MAP [1, 12]: 96 ± 3 mm Hg
HR [1, 13]: 100 ± 7 bpm
MAP [1, 13]: 97 ± 4 mm Hg
HR [1, 14]: 94 ± 7 bpm
MAP [1, 14]: 96 ± 4 mm Hg
HR [1, 15]: 89 ± 7 bpm
MAP [1, 15]: 96 ± 3 mm Hg
HR [1, 16]: 160 ± 13 bpm
MAP [1, 16]: 89 ± 5 mm Hg
HR [1, 17]: 145 ± 7 bpm
MAP [1, 17]: 89 ± 5 mm Hg
HR [1, 18]: 150 ± 4 bpm
MAP [1, 18]: 91 ± 5 mm Hg
HR [1, 19]: 137 ± 5 bpm
MAP [1, 19]: 91 ± 3 mm Hg
HR [1, 20]: 127 ± 4 bpm
MAP [1, 20]: 93 ± 4 mm Hg
HR [1, 21]: 129 ± 6 bpm
MAP [1, 21]: 90 ± 3 mm Hg
HR [1, 22]: 104 ± 5 bpm
MAP [1, 22]: 91 ± 2 mm Hg
HR [1, 23]: 104 ± 6 bpm
MAP [1, 23]: 96 ± 3 mm Hg
HR [1, 24]: 93 ± 7 bpm
MAP [1, 24]: 97 ± 3 mm Hg
HR [1, 25]: 166 ± 18 bpm
MAP [1, 25]: 107 ± 6 mm Hg
HR [1, 26]: 163 ± 8 bpm
MAP [1, 26]: 95 ± 5 mm Hg
HR [1, 27]: 158 ± 6 bpm
MAP [1, 27]: 99 ± 4 mm Hg
HR [1, 28]: 141 ± 4 bpm
MAP [1, 28]: 98 ± 4 mm Hg
HR [1, 29]: 131 ± 6 bpm
MAP [1, 29]: 100 ± 2 mm Hg
HR [1, 30]: 128 ± 7 bpm
MAP [1, 30]: 100 ± 2 mm Hg
HR [1, 31]: 113 ± 5 bpm
MAP [1, 31]: 100 ± 2 mm Hg
HR [1, 32]: 102 ± 6 bpm
MAP [1, 32]: 101 ± 4 mm Hg
HR [1, 33]: 101 ± 6 bpm
MAP [1, 33]: 102 ± 4 mm Hg
HR [1, 34]: 149 ± 15 bpm
MAP [1, 34]: 93 ± 3 mm Hg
HR [1, 35]: 144 ± 7 bpm
MAP [1, 35]: 86 ± 4 mm Hg
HR [1, 36]: 148 ± 5 bpm
MAP [1, 36]: 89 ± 4 mm Hg
HR [1, 37]: 135 ± 4 bpm
MAP [1, 37]: 89 ± 4 mm Hg
HR [1, 38]: 130 ± 5 bpm
MAP [1, 38]: 92 ± 4 mm Hg
HR [1, 39]: 127 ± 6 bpm
MAP [1, 39]: 92 ± 4 mm Hg
HR [1, 40]: 105 ± 4 bpm
MAP [1, 40]: 95 ± 4 mm Hg
HR [1, 41]: 98 ± 3 bpm
MAP [1, 41]: 93 ± 6 mm Hg
HR [1, 42]: 99 ± 7 bpm
MAP [1, 42]: 98 ± 5 mm Hg
peak increase in LV dP/dtMax from baseline ([1]; regadenoson 5 μg/kg IV, absence of caffeine): 65±7%
duration of the 2-fold increase in CBF [1, 43]: 515 ± 71 s
peak CBF [1, 43]: 191 ± 7 mL/min
peak decrease in LVSP from baseline [1, 43]: 9±1%
peak decrease in MAP from baseline [1, 44]: 15±2%
peak increase in HR from baseline [1, 44]: 114±14%
duration of 2-fold increase in CBF [1, 45]: 401 ± 45 s
maximum CBF [1, 45]: 178 ± 17 mL/min
duration of 2-fold increase in CBF [1, 46]: 395 ± 43 s
maximum CBF [1, 46]: 176 ± 6 mL/min
differences in baseline CBF, maximum CBF or duration of 2-fold increase in CBF between two injections (tachyphylaxis) ([1]; two injections of regadenoson 5 μg/kg IV 90 min apart): no statistically significant differences
CFR (stress/rest) [2]: 2.97±0.16
log CFR±SE ([2]; n=40): 1.03±0.06
